Source: US20230002359A1, “PESTICIDALLY ACTIVE FUSED BICYCLIC HETEROAROMATIC COMPOUNDS” (priority 2019, published 2023)

Columns and labels:
[1] = tested on: Plutella xylostella (Diamondback Moth); assay: Example B9: Plutella xylostella (diamondback moth), artificial diet, eggs, 96-well; assay type: in vivo; settings: 216 h, application rate of 500 ppm, 9 days after infestation, read-out: control in mortality
Method: 96-well microtiter plates containing artificial diet were treated with aqueous test solutions, prepared from 10′000 ppm DMSO stock solutions, by a liquid handling robot. After drying, eggs (˜30 per well) were infested onto a netted lid which was suspended above the diet. The eggs hatch and L1 larvae move down to the diet. The samples were assessed for mortality 9 days after infestation.

[2] = tested on: Plutella xylostella (Diamond Back Moth); assay: Example B4: Plutella xylostella (diamond back moth), artificial diet, eggs, 24-well; assay type: in vivo; settings: 192 h, application rate of 200 ppm, 8 days after infestation, eggs, read-out: control in at least one of the two categories (mortality or growth inhibition)
Method: 24-well microtiter plates with artificial diet were treated with aqueous test solutions prepared from 10′000 ppm DMSO stock solutions by pipetting. After drying, Plutella eggs were pipetted through a plastic stencil onto a gel blotting paper and the plate was closed with it. The samples were assessed for mortality and growth inhibition in comparison to untreated samples 8 days after infestation.

[3] = tested on: Chilo suppressalis (Striped Rice Stemborer); assay: Example B3: Chilo suppressalis (striped rice stemborer), artificial diet, L2 larvae; assay type: in vivo; settings: 144 h, application rate of 200 ppm, 6 days after infestation, L2 larvae, read-out: control in at least one of the three categories (mortality, anti-feedant effect, or growth inhibition)
Summary of the method: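 Artificial diet in wells was treated with aqueous test solutions diluted from 10'000 ppm DMSO stocks, dried, then infested with 6-8 L2 larvae per well. Mortality, anti-feeding effect and growth inhibition were scored against untreated samples 6 days after infestation; control means any category exceeds the untreated sample.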

[4] = tested on: Spodoptera littoralis (Egyptian Cotton Leaf Worm); assay: Example B7: Spodoptera littoralis (Egyptian cotton leaf worm), cotton leaf discs sprayed, L1 larvae; assay type: in vivo; settings: foliar, 72 h, application rate of 200 ppm, 3 days after infestation, L1 larvae, read-out: control in at least one of the three categories (mortality, anti-feedant effect, or growth inhibition)
Summary of the method: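 Spray application onto agar-supported cotton leaf discs used aqueous solutions derived from 10′000 ppm DMSO stocks. Once dry, discs were infested with five L1 larvae and evaluated after 3 days for mortality, anti-feeding and growth inhibition relative to untreated controls.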

[5] = tested on: Diabrotica Balteata (Corn Root Worm); assay: Example B1: Diabrotica balteata (corn root worm), maize sprouts sprayed, L2 larvae; assay type: in vivo; settings: 96 h, application rate of 200 ppm, 4 days after infestation, L2 larvae, read-out: control in at least one of the two categories (mortality or growth inhibition)
Summary of the method: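 Spray test: maize sprouts on agar, aqueous dilutions of 10′000 ppm DMSO stock; after drying, 6–10 L2 larvae/well. Read-out at 4 d post-infestation: mortality and growth inhibition vs untreated.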

[6] = tested on: Euschistus heros (Neotropical Brown Stink Bug); assay: Example B2: Euschistus heros (neotropical brown stink bug), soybean leaves sprayed, N2 nymphs; assay type: in vivo; settings: 120 h, application rate of 200 ppm, 5 days after infestation, N2 nymphs, read-out: control in at least one of the two categories (mortality or growth inhibition)
Method: Soybean leaves on agar in 24-well microtiter plates were sprayed with aqueous test solutions prepared from 10′000 ppm DMSO stock solutions. After drying the leaves were infested with N2 nymphs. The samples were assessed for mortality and growth inhibition in comparison to untreated samples 5 days after infestation.

[7] = tested on: Myzus persicae (Green Peach Aphid); assay: Example B5: Myzus persicae (green peach aphid) feeding/contact activity, sunflower leaf discs; assay type: in vivo; settings: foliar, 144 h, application rate of 200 ppm, 6 days after infestation
Method: Sunflower leaf discs were placed onto agar in a 24-well microtiter plate and sprayed with aqueous test solutions prepared from 10′000 ppm DMSO stock solutions. After drying, the leaf discs were infested with an aphid population of mixed ages. The samples were assessed for mortality 6 days after infestation.

[8] = tested on: Myzus persicae (Green Peach Aphid); assay: Example B6: Myzus persicae (green peach aphid) intrinsic activity, sucrose solution; assay type: in vivo; settings: 120 h, test rate of 12 ppm, 5 days after infestation, intrinsic activity, read-out: mortality
Summary of the method: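 Mortality was read 5 days after infestation. Aphids on pea seedlings fed through a stretched Parafilm membrane on inverted 24-well plates containing sucrose solution mixed with test compound, which was diluted from 10′000 ppm DMSO stock.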

Row | Compound | melting point [°C] | mortality at 500 ppm [1] [%] | percent control (mortality or growth inhibition) at 200 ppm [2] [%] | percent control (mortality, anti-feedant effect or growth inhibition) at 200 ppm [3] [%] | also measured
1 | CC(Nc1ncnc2c(C(F)(F)F)cc(Br)cc12)c1ncnn1-c1ccc(F)cn1 (stereo not shown) | 282 to 284 | – | – | – | –
2 | CC(Nc1c(C#N)cnc2c(C(F)(F)F)cc(C(F)(F)F)cc12)c1ncnn1-c1ccc(C#N)cn1 (stereo not shown) | 261 to 263 | – | – | – | –
3 | CC(Nc1ncnc2c(Br)cc(C(F)(F)F)cc12)c1ncnn1-c1ccc(Br)cn1 (stereo not shown) | 280 to 282 | – | – | – | –
4 | CC(Nc1ncnc2c(C(F)(F)F)cc(Cl)cc12)c1ncnn1-c1ccc(Br)cn1 (stereo not shown) | 274 to 276 | – | – | – | –
5 | CC(c1ncnn1-c1ncccn1)N(CC1CC1)c1nc(Cl)nc2c(Br)cc(C(F)(F)F)cc12 (stereo not shown) | 87 to 89 | – | – | – | –
6 | CC(c1ncnn1-c1ncccn1)N(CC1CC1)c1nc(Cl)nc2c(Cl)cc(C(F)(F)F)cc12 (stereo not shown) | 81 to 83 | – | – | – | –
7 | CC(c1nccnc1-c1ccc(C#N)cn1)N(CC1CC1)c1ncnc2c(C(F)(F)F)cc(Br)cc12 (stereo not shown) | 251 to 253 | – | – | – | –
8 | CC(Nc1ncnc2c(C(F)(F)F)cc(Br)cc12)c1ncnn1-c1ccc(Br)cn1 (stereo not shown) | 214 to 216 | – | – | – | –
9 | Cc1nc(NC(C)c2ncnn2-c2ccc(C#N)cn2)c2cc(C(F)(F)F)cc(C(F)(F)F)c2n1 (stereo not shown) [P.60, 6-[5-[1-[[2-methyl-6,8-bis(trifluoromethyl)quinazolin-4-yl]amino]ethyl]-1,2,4-triazol-1-yl]pyridine-3-carbonitrile] | – | ≥ 80 | ≥ 80 | ≥ 80 | –
10 | CC(Nc1ncnc2c(C(F)(F)F)cc(C(F)(F)F)cc12)c1ncnn1-c1ccc(C#N)cn1 (stereo not shown) [P.61, 6-[5-[1-[[6,8-bis(trifluoromethyl)quina-zolin-4-yl]amino]ethyl]-1,2,4-triazol-1-yl]pyridine-3-carbonitrile] | – | ≥ 80 | ≥ 80 | ≥ 80 | percent control (mortality, anti-feedant effect or growth inhibition) at 200 ppm [4]: ≥ 80%
11 | CC(Nc1ncnc2c(C(F)(F)F)cccc12)c1ncnn1-c1ccc(C#N)cn1 (stereo not shown) [P.62, 6-[5-[1-[[8-(trifluoromethyl)quinazolin-4-yl]amino]ethyl]-1,2,4-triazol-1-yl]pyridine-3-carbonitrile] | – | ≥ 80 | ≥ 80 | ≥ 80 | –
12 | CC(Nc1ncnc2c(C(F)(F)F)cc(Br)cc12)c1ncnn1-c1ccc(C#N)cn1 (stereo not shown) [P.63, 6-[5-[1-[[6-bromo-8-(trifluoromethyl)quinazolin-4-yl]amino]ethyl]-1,2,4-triazol-1-yl]pyridine-3-carbonitrile] | – | ≥ 80 | ≥ 80 | ≥ 80 | percent control (mortality, anti-feedant effect or growth inhibition) at 200 ppm [4]: ≥ 80%
13 | CC(Nc1ncnc2ccc(C(F)(F)F)cc12)c1ncnn1-c1ccc(C#N)cn1 (stereo not shown) [P.64, 6-[5-[1-[[6-(trifluoromethyl)quinazolin-4-yl]amino]ethyl]-1,2,4-triazol-1-yl]pyridine-3-carbonitrile] | – | ≥ 80 | ≥ 80 | ≥ 80 | percent control (mortality or growth inhibition) at 200 ppm [5]: ≥ 80%; percent control (mortality, anti-feedant effect or growth inhibition) at 200 ppm [4]: ≥ 80%
14 | CC(Nc1ncnc2c(Cl)cc(Cl)cc12)c1ncnn1-c1ccc(C#N)cn1 (stereo not shown) [P.65, 6-[5-[1-[(6,8-dichloroquinazolin-4-yl)amio]ethyl]-1,2,4-triazol-1-yl]pyridine-3-carbonitrile] | – | ≥ 80 | ≥ 80 | ≥ 80 | –
15 | CC(Nc1nccc2c(C(F)(F)F)cccc12)c1ncnn1-c1ccccn1 (stereo not shown) [P.69, N-[1-[2-(2-pyridyl)-1,2,4-triazol-3-yl]ethyl]-5-(trifluoromethyl)isoquino-lin-1-amine] | – | ≥ 80 | – | – | –
16 | C[C@@H](c1ncnn1-c1ncccn1)N(CC1CC1)c1ncnc2c(C(F)(F)F)cc(Cl)cc12 [P.265, 6-chloro-N-(cyclopropylmethyl)-N-[(1S)-1-(2-pyrimidin-2-yl-1,2,4-triazol-3-yl)ethyl]-8-(trifluoromethyl)quinazolin-4-amine] | – | – | ≥ 80 | ≥ 80 | percent control (mortality or growth inhibition) at 200 ppm [6]: ≥ 80%; mortality at 200 ppm [7]: ≥ 80%; mortality at 12 ppm [8]: ≥ 80%; percent control (mortality or growth inhibition) at 200 ppm [5]: ≥ 80%; percent control (mortality, anti-feedant effect or growth inhibition) at 200 ppm [4]: ≥ 80%
17 | C[C@@H](c1ncnn1-c1ccc(C#N)cn1)N(CC1CC1)c1ncnc2c(Cl)cc(C(F)(F)F)cc12 [P.271, 6-[5-[(1S)-1-[[8-chloro-6-(trifluoromethyl)quinazolin-4-yl]-(cyclopropylmethyl)amino]ethyl]-1,2,4-triazol-1-yl]pyridine-3-carbonitrile] | – | – | ≥ 80 | ≥ 80 | percent control (mortality or growth inhibition) at 200 ppm [6]: ≥ 80%; mortality at 200 ppm [7]: ≥ 80%; mortality at 12 ppm [8]: ≥ 80%; percent control (mortality or growth inhibition) at 200 ppm [5]: ≥ 80%; percent control (mortality, anti-feedant effect or growth inhibition) at 200 ppm [4]: ≥ 80%
18 | CC(Nc1ncnc2c(Cl)nccc12)c1nccnc1-n1nccn1 (stereo not shown) [P.277, 8-chloro-N-[1-[3-(triazol-2-yl)pyrazin-2-yl]ethyl]pyrido[3,4-d]pyrimidin-4-amine] | – | ≥ 80 | – | – | –
